# Data from patent US7786141B2 (Vertex Pharmaceuticals Incorporated, priority 2004, dated 2010).
# Legend:
# M4 muscarinic receptor = target: T1, M4 muscarinic receptor (Homo sapiens, UniProt P08173); assay: Functional mobilization of intracellular calcium (FLIPR) in M4-CHO cells; type: cell-based; conditions: M4 receptor, calcium mobilization; for Emax: read-out: M4 Efficacy
# T1 construct: expressed in transfected cells; host or cells: CHO (M4-CHO)
# T1 sequence (P08173 1-479): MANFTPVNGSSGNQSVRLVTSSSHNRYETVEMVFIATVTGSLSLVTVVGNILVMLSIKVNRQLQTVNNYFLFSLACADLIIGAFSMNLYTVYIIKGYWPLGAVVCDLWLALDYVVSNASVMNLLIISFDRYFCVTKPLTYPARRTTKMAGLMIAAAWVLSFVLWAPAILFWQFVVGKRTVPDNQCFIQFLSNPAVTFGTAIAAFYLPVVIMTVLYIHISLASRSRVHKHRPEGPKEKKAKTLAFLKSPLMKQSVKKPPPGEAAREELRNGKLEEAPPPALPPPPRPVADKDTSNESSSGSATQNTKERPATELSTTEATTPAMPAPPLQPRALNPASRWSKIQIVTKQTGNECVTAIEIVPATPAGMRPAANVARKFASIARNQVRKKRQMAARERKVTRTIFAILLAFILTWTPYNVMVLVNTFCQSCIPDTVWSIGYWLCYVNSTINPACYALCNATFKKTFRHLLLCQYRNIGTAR
# Outline: (§1)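 CHO cells stably expressing human M1 or M4 receptor were loaded with Fluo-3 AM (or Calcium 3 dye) in Hepes-buffered saline, pH 7.4, with 1 mM probenecid, 0.5% final DMSO. Agonist mode: compound added directly; antagonist mode: 15 min preincubation before carbachol at EC80. FLIPR fluorescence recorded 60 sec.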
# M1 muscarinic receptor = target: T2, M1 muscarinic receptor (Homo sapiens, UniProt P11229); assay: Functional mobilization of intracellular calcium (FLIPR) in M1-CHO cells; type: cell-based; conditions: M1 receptor, calcium mobilization; for Emax: read-out: M1 Efficacy
# T2 construct: expressed in transfected cells; host or cells: CHO (M1-CHO)
# T2 sequence (P11229 1-460): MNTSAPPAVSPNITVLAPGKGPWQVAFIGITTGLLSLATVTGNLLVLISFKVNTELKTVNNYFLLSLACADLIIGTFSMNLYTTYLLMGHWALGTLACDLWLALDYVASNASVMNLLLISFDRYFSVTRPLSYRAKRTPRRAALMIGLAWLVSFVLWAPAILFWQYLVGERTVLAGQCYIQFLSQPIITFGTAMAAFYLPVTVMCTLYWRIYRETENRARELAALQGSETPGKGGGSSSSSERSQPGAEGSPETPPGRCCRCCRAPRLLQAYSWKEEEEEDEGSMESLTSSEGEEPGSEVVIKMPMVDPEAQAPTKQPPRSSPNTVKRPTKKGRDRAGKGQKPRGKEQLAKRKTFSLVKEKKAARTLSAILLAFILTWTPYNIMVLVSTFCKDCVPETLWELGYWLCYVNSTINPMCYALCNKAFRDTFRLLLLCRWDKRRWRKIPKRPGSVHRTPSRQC
# Outline: as §1
Structure (SMILES),M4 Activity (M4 muscarinic receptor),Emax (M4 muscarinic receptor),M1 Activity (M1 muscarinic receptor),Emax (M1 muscarinic receptor),M4 Efficacy (M4 muscarinic receptor),M1 Efficacy (M1 muscarinic receptor)
CCOC(=O)N1C2CCC1CC(N1CCC3(CC1)CN(C(=O)NC(C)C)c1ccc(F)cc13)C2 (centres unmarked) [compound 296],x (activity was measured to be greater than 1.0 μM),65 to 85%,x (activity was measured to be greater than 1.0 μM),65 to 85%,–,–
CCCOC(=O)N1C2CCC1CC(N1CCC3(CC1)CN(C(=O)O[C@@H]1CCOC1)c1ccc(F)cc13)C2 (some centres unmarked) [compound 297],x (activity was measured to be greater than 1.0 μM),–,x (activity was measured to be greater than 1.0 μM),–,xx (efficacy was calculated to be between 85% and 65%),xx (efficacy was calculated to be between 85% and 65%)
CCOC(=O)N1C2CCC1CC(N1CCC3(CC1)CN(C(=O)Oc1ccc(F)cc1)c1ccc(F)cc13)C2 (centres unmarked) [compound 298],x (activity was measured to be greater than 1.0 μM),65 to 85%,x (activity was measured to be greater than 1.0 μM),< 65%,–,–
Fc1ccc2c(c1)C1(CCN(C3CCOCC3)CC1)CN2 [compound 299],x (activity was measured to be greater than 1.0 μM),65 to 85%,x (activity was measured to be greater than 1.0 μM),65 to 85%,–,–
Fc1ccc2c(c1)C1(CCN(C[C@H]3C[C@H]4CC[C@H]3O4)CC1)CN2 [compound 300],x (activity was measured to be greater than 1.0 μM),< 65%,xx (activity was measured to be between 0.1 μM and 1.0 μM),65 to 85%,–,–
O=C(O[C@H]1CCOC1)N1C2CCC1CC(N1CCC3(CC1)C(=O)Nc1ccccc13)C2 (some centres unmarked) [compound 301],x (activity was measured to be greater than 1.0 μM),< 65%,x (activity was measured to be greater than 1.0 μM),< 65%,–,–
CCCOC(=O)N1C2CCC1CC(N1CCC3(CC1)CN(C(=O)C1CCC1)c1ccc(F)cc13)C2 (centres unmarked) [compound 302],x (activity was measured to be greater than 1.0 μM),< 65%,x (activity was measured to be greater than 1.0 μM),< 65%,–,–
CCOC(=O)N1CCC(N2CCC3(CC2)CN(CC(=O)CC)c2ccc(F)cc23)CC1 [compound 303],x (activity was measured to be greater than 1.0 μM),< 65%,xx (activity was measured to be between 0.1 μM and 1.0 μM),> 85%,–,–
COCCOC(=O)N1CC2(CCN(C3CC4CCC(C3)N4C(=O)O[C@@H]3CCOC3)CC2)c2cc(F)ccc21 (some centres unmarked) [compound 304],x (activity was measured to be greater than 1.0 μM),< 65%,xxx (activity was measured to be less than 0.1 μM),65 to 85%,–,–
CC(=O)NC1CC2(CCN(CC3CC4C=CC3C4)CC2)c2ccccc21 (centres unmarked) [compound 305],x (activity was measured to be greater than 1.0 μM),–,x (activity was measured to be greater than 1.0 μM),–,x (efficacy was calculated to be less than 65%),x (efficacy was calculated to be less than 65%)
CCCOC(=O)N1CCC(CN2CCC3(CC2)CN(C(C)=O)c2ccc(C)cc23)CC1 [compound 306],x (activity was measured to be greater than 1.0 μM),< 65%,x (activity was measured to be greater than 1.0 μM),< 65%,–,–
CCOC(=O)N1CCC(CN2CCC3(CC2)CN(C(C)=O)c2c(F)cccc23)CC1 [compound 307],x (activity was measured to be greater than 1.0 μM),< 65%,xx (activity was measured to be between 0.1 μM and 1.0 μM),65 to 85%,–,–
CCOC(=O)N1C2CCC1CC(N1CCC3(CC1)CN(C(=O)c1ccncc1)c1ccc(F)cc13)C2 (centres unmarked) [compound 308],x (activity was measured to be greater than 1.0 μM),< 65%,xxx (activity was measured to be less than 0.1 μM),> 85%,–,–
CCOC(=O)N1CCCC(N2CCC3(CC2)CN(C(C)=O)c2ccc(F)cc23)CC1 (centres unmarked) [compound 309],x (activity was measured to be greater than 1.0 μM),< 65%,xx (activity was measured to be between 0.1 μM and 1.0 μM),> 85%,–,–
CCOC(=O)N1C2CCC1CC(N1CCC3(CC1)CNc1ccc(F)cc13)C2 (centres unmarked) [compound 310],x (activity was measured to be greater than 1.0 μM),< 65%,xx (activity was measured to be between 0.1 μM and 1.0 μM),< 65%,–,–
COCCOC(=O)N1C2CCC1CC(N1CCC3(CC1)CN(C(=O)C1CC1)c1ccc(F)cc13)C2 (centres unmarked) [compound 311],x (activity was measured to be greater than 1.0 μM),65 to 85%,xxx (activity was measured to be less than 0.1 μM),65 to 85%,–,–
COC(=O)N1CCC(N2CCC3(CC2)CN(C(C)=O)c2ccc(C)cc23)CC1 [compound 312],x (activity was measured to be greater than 1.0 μM),< 65%,x (activity was measured to be greater than 1.0 μM),< 65%,–,–
C1=C[C@H]2C[C@H]1C[C@H]2CN1CCC2(CCc3ccccc32)CC1 [compound 313],x (activity was measured to be greater than 1.0 μM),< 65%,x (activity was measured to be greater than 1.0 μM),< 65%,–,–
COC(=O)N1C2CCC1CC(N1CCC3(CC1)CN(C(=O)N(C)C)c1ccc(F)cc13)C2 (centres unmarked) [compound 314],x (activity was measured to be greater than 1.0 μM),< 65%,xx (activity was measured to be between 0.1 μM and 1.0 μM),< 65%,–,–
CCOC(=O)N1CCC(C)(CN2CCC3(CC2)C[C@H](NC(C)=O)c2ccccc23)CC1 [compound 315],x (activity was measured to be greater than 1.0 μM),< 65%,x (activity was measured to be greater than 1.0 μM),< 65%,–,–
C#CCOC(=O)N1CCC(CN2CCC3(CC2)CN(C(C)=O)c2ccc(F)cc23)CC1 [compound 316],x (activity was measured to be greater than 1.0 μM),< 65%,x (activity was measured to be greater than 1.0 μM),< 65%,–,–
CCOC(=O)N1CCC(N2CCC3(CC2)CN(C(=O)CC)c2ccc(F)cc23)CC1 [compound 317],x (activity was measured to be greater than 1.0 μM),< 65%,x (activity was measured to be greater than 1.0 μM),< 65%,–,–
CCOC(=O)N1C2CCC1CC(N1CCC3(CC1)CC(NC(C)=O)c1ccccc13)C2 (centres unmarked) [compound 318],xxx (activity was measured to be less than 0.1 μM),> 85%,xxx (activity was measured to be less than 0.1 μM),65 to 85%,–,–
